According to article PMC7129916 (Clinical Microbiology and Infection, 2015):
Converted amounts (≈) assume the structure as drawn. Read-outs that look alike come from different tables or passages of the source. Values belong to the compound of their own block, whether it stands above or below them.

How the values were obtained:
[1] = parameters: species or system human; settings: in vivo
M. catarrhalis [2] = assay: microbe, parasite or virus in culture; type: cell-based; settings: Moraxella catarrhalis
H. influenzae [3] = assay: microbe, parasite or virus in culture; type: cell-based; settings: Haemophilus influenzae
[4] = in vivo
S. pneumoniae [5] = assay: microbe, parasite or virus in culture; type: cell-based; settings: Streptococcus pneumoniae
S. pneumoniae [6] = system: S. pneumoniae
[7] = system: intracellular P. gingivalis in KB cells; type: cell-based
K. pneumoniae = assay: microbe, parasite or virus in culture; type: cell-based; settings: Klebsiella pneumoniae
MSSA [8] = assay: microbe, parasite or virus in culture; settings: Staphylococcus aureus
H. influenzae [9] = assay: microbe, parasite or virus in culture; type: cell-based; settings: Haemophilus influenzae; remark: listed apart in the source
S. aureus MRSA = assay: microbe, parasite or virus in culture; type: cell-based; settings: Staphylococcus aureus
[10] = 90% CI 86 to 97%
MRSA = assay: microbe, parasite or virus in culture; settings: Staphylococcus aureus
Porphyromonas gingivalis = assay: microbe, parasite or virus in culture; type: cell-based, P. gingivalis; settings: read-out: MIC of mutants
S. pneumoniae (Sp) = assay: microbe, parasite or virus in culture; type: cell-based; settings: Streptococcus pneumoniae
MSSA [11] = system: MSSA
S. aureus MSSA = assay: microbe, parasite or virus in culture; type: cell-based; settings: Staphylococcus aureus
M. catarrhalis [12] = assay: microbe, parasite or virus in culture; type: cell-based
Streptococcus pneumoniae = assay: microbe, parasite or virus in culture; type: cell-based, S. pneumoniae
Enterobacter spp. (ENT) [13] = system: Enterobacter spp. (ENT)
[14] = system: Viridans group streptococci (VGS); assay: organism not typed; type: cell-based
S. pneumoniae (SPN) [15] = assay: microbe, parasite or virus in culture; settings: Streptococcus pneumoniae
Enterococcus spp. (ESP) = assay: microbe, parasite or virus in culture; type: cell-based
beta-streptococci (BST) = assay: organism not typed
M. catarrhalis (MCAT) = assay: microbe, parasite or virus in culture; settings: Moraxella catarrhalis
E. coli (EC) = assay: microbe, parasite or virus in culture; settings: Escherichia coli
[16] = system: S. aureus and/or streptococcal baseline pathogens; assay: microbe, parasite or virus in culture; settings: Staphylococcus aureus, read-out: MIC values
Acinetobacter spp. (AC) = assay: microbe, parasite or virus in culture
Enterobacter spp. (ENT) [17] = assay: microbe, parasite or virus in culture
Serratia spp. (SER) = assay: microbe, parasite or virus in culture
H. influenzae (Hi) [18] = assay: microbe, parasite or virus in culture; settings: Haemophilus influenzae
E. coli ESBL = assay: microbe, parasite or virus in culture; type: cell-based
[19] = system: all resistant organism subsets; type: cell-based
H. influenzae (Hi) [20] = system: H. influenzae (Hi)
S. pneumoniae (SPN) [21] = system: S. pneumoniae (SPN)
P. aeruginosa (PSA) = assay: microbe, parasite or virus in culture; settings: Pseudomonas aeruginosa
Klebsiella spp. (KSP) = assay: microbe, parasite or virus in culture
S. aureus (SA) [22] = assay: microbe, parasite or virus in culture; settings: Staphylococcus aureus
[23] = system: Coag neg staphylococci (CoNS); assay: organism not typed; type: cell-based
Klebsiella spp. ESBL = assay: microbe, parasite or virus in culture; type: cell-based
Enterobacteriaceae (ENT) = assay: organism not typed; type: cell-based
S. aureus (SA) [24] = assay: microbe, parasite or virus in culture; type: cell-based; settings: Staphylococcus aureus
S pneumoniae (SPN) = assay: microbe, parasite or virus in culture; type: cell-based
[25] = system: S. aureus and/or streptococci; settings: 30 of 35 pts

SMILES: C[C@@H](O)[C@H]1C(=O)N2C(C(=O)O)=C(S[C@@H]3CN[C@H](C(=O)Nc4cccc(C(=O)O)c4)C3)[C@H](C)[C@H]12 [ETP]
Adjusted LOS [1]: 11.9

MIC50 (M. catarrhalis [2]): ≤ 0.03 µg/mL
MIC50 (H. influenzae [3]): ≤ 0.03 µg/mL
SMILES: COc1c(N2CCNC(C)C2)c(F)cc2c(=O)c(C(=O)O)cn(C3CC3)c12 (centres unmarked) [GFX, gatifloxacin]

concomitant drug bioavailability (AUC %) with POS vs alone [4]: 458%
SMILES: C=CC[C@@H]1/C=C(\C)C[C@H](C)C[C@H](OC)[C@H]2O[C@@](O)(C(=O)C(=O)N3CCCC[C@H]3C(=O)O[C@H](/C(C)=C/[C@@H]3CC[C@@H](O)[C@H](OC)C3)[C@H](C)[C@@H](O)CC1=O)[C@H](C)C[C@@H]2OC [Tacrolimus, tacrolimus]

SMILES: COc1c(N2C[C@@H]3CCCN[C@@H]3C2)c(F)cc2c(=O)c(C(=O)O)cn(C3CC3)c12 [moxifloxacin]
MIC90 (S. pneumoniae [5]): 0.19 µg/mL (≈ 0.473 µM)
%I (S. pneumoniae [6]; 2002 (n = 103)): 3%
%R (S. pneumoniae [6]; 2002 (n = 103)): 1%
%S (S. pneumoniae [6]; 2002 (n = 103)): 96%
%I (S. pneumoniae [6]; 2003 (n = 137)): 0%
%R (S. pneumoniae [6]; 2003 (n = 137)): 1.5%
%S (S. pneumoniae [6]; 2003 (n = 137)): 98.5%
%I (S. pneumoniae [6]; 2004 (n = 110)): 0%
%R (S. pneumoniae [6]; 2004 (n = 110)): 0%
%S (S. pneumoniae [6]; 2004 (n = 110)): 100%
concentration killing all intracellular P. gingivalis [7]: 100 fold MIC
MIC90 (K. pneumoniae): 0.75 µg/mL (≈ 1.87 µM)
MIC50 (MSSA [8]): 0.25 µg/mL (≈ 0.623 µM)
MIC90 (H. influenzae [9]): 0.125 µg/mL (≈ 0.311 µM)
MIC90 (S. aureus MRSA): 8 µg/mL (≈ 19.9 µM)
AUC point estimate B/A [10]: 91%
AUC point estimate C/A [10]: 91%
MIC90 (MRSA): ≥ 16 µg/mL
MIC (Porphyromonas gingivalis): > 32 µg/mL
MIC90 (S. pneumoniae (Sp)): 0.25 µg/mL (≈ 0.623 µM)
more active than ciprofloxacin (MSSA [11]): 4 fold
MIC90 (S. aureus MSSA): 1 µg/mL (≈ 2.49 µM)
susceptible (%) (M. catarrhalis [12]): 100%
MIC90 (M. catarrhalis [12]; Moraxella catarrhalis): 0.125 µg/mL (≈ 0.311 µM)

MIC (Streptococcus pneumoniae): 4 µg/mL (≈ 4.93 µM)
SMILES: CC[C@H]1OC(=O)[C@H](C)C(=O)[C@H](C)[C@@H](O[C@@H]2O[C@H](C)C[C@H](N(C)C)[C@H]2O)[C@](C)(OC)C[C@@H](C)C(=O)[C@H](C)[C@H]2N(CCCCn3cnc(-c4cccnc4)c3)C(=O)O[C@]12C [telithromycin]

MIC50 [14]: ≤ 0.12 µg/mL
MIC90 [14]: 0.12 µg/mL (≈ 0.205 µM)
MIC50 (S. pneumoniae (SPN) [15]): ≤ 0.12 µg/mL
MIC90 (S. pneumoniae (SPN) [15]): ≤ 0.12 µg/mL
MIC50 (Enterococcus spp. (ESP); Enterococcus): ≤ 0.12 µg/mL
MIC90 (Enterococcus spp. (ESP); Enterococcus): 0.25 µg/mL (≈ 0.427 µM)
MIC 50% (Enterococcus spp. (ESP); Van B (95)): ≤ 0.12 µg/mL
MIC 90% (Enterococcus spp. (ESP); Van B (95)): 0.25 µg/mL (≈ 0.427 µM)
MIC50 (beta-streptococci (BST)): ≤ 0.12 µg/mL
MIC90 (beta-streptococci (BST)): ≤ 0.12 µg/mL
MIC90 (M. catarrhalis (MCAT)): 0.25 µg/mL (≈ 0.427 µM)
MIC50 (M. catarrhalis (MCAT); CARTI (600)): ≤ 0.12 µg/mL
MIC50 (M. catarrhalis (MCAT); NP (7)): 0.25 µg/mL (≈ 0.427 µM)
MIC50 (E. coli (EC)): 0.25 µg/mL (≈ 0.427 µM)
MIC90 (E. coli (EC)): 0.5 µg/mL (≈ 0.854 µM)
MIC (E. coli (EC); read-out: MICs): ≤ 2 µg/mL
MIC [16]: 0.06 to 0.5 µg/mL (≈ 0.102 to 0.854 µM)
MIC50 (Acinetobacter spp. (AC)): 1 µg/mL (≈ 1.71 µM)
MIC90 (Acinetobacter spp. (AC)): 4 µg/mL (≈ 6.83 µM)
MIC50 (Enterobacter spp. (ENT) [17]): 0.5 µg/mL (≈ 0.854 µM)
MIC90 (Enterobacter spp. (ENT) [17]): 2 µg/mL (≈ 3.41 µM)
MIC50 (Serratia spp. (SER)): 1 µg/mL (≈ 1.71 µM)
MIC90 (Serratia spp. (SER)): 4 µg/mL (≈ 6.83 µM)
MIC50 (H. influenzae (Hi) [18]): 0.5 µg/mL (≈ 0.854 µM)
MIC90 (H. influenzae (Hi) [18]): 1 µg/mL (≈ 1.71 µM)
MIC50 (E. coli ESBL; Escherichia coli): 0.25 µg/mL (≈ 0.427 µM)
MIC90 (E. coli ESBL; Escherichia coli): 0.5 µg/mL (≈ 0.854 µM)
MIC90 (H. influenzae (Hi) [20]; NP): 1 µg/mL (≈ 1.71 µM)
MIC50 (H. influenzae (Hi) [20]; NP (16)): 0.5 µg/mL (≈ 0.854 µM)
MIC90 (S. pneumoniae (SPN) [21]; NP): ≤0.12/≤0.12 mg/L
MIC50 (S. pneumoniae (SPN) [21]; NP (117)): ≤0.12/≤0.12 mg/L
MIC90 (P. aeruginosa (PSA)): 16 µg/mL (≈ 27.3 µM)
MIC50 (Klebsiella spp. (KSP)): 0.5 µg/mL (≈ 0.854 µM)
MIC90 (Klebsiella spp. (KSP)): 1 µg/mL (≈ 1.71 µM)
MIC (Klebsiella spp. (KSP); read-out: MICs): ≤ 2 µg/mL
MIC50 (S. aureus (SA) [22]): 0.25 µg/mL (≈ 0.427 µM)
MIC90 (S. aureus (SA) [22]): 0.5 µg/mL (≈ 0.854 µM)
MIC50 [23]: ≤ 0.12 µg/mL
MIC90 [23]: 0.5 µg/mL (≈ 0.854 µM)
MIC50 (Klebsiella spp. ESBL; Klebsiella): 0.5 µg/mL (≈ 0.854 µM)
MIC90 (Klebsiella spp. ESBL; Klebsiella): 2 µg/mL (≈ 3.41 µM)
MIC50 (Enterobacteriaceae (ENT)): 0.5 µg/mL (≈ 0.854 µM)
MIC 50% (Enterobacteriaceae (ENT)): 0.25 µg/mL (≈ 0.427 µM)
MIC90 (Enterobacteriaceae (ENT)): 4 µg/mL (≈ 6.83 µM)
MIC 90% (Enterobacteriaceae (ENT)): 2 µg/mL (≈ 3.41 µM)
MIC50 (S. aureus (SA) [24]): 0.25 µg/mL (≈ 0.427 µM)
MIC90 (S. aureus (SA) [24]): 0.5 µg/mL (≈ 0.854 µM)
MIC 50% (S pneumoniae (SPN); CIP-R (171)): ≤ 0.12 µg/mL
MIC50 (S pneumoniae (SPN); Streptococcus pneumoniae): ≤ 0.12 µg/mL
MIC90 (S pneumoniae (SPN); Streptococcus pneumoniae, CIP-R (171)): ≤ 0.12 µg/mL
MIC90 (S pneumoniae (SPN); Streptococcus pneumoniae, TET R (733)): ≤ 0.12 µg/mL
MIC90 (S pneumoniae (SPN); Streptococcus pneumoniae, […]): 0.12 µg/mL (≈ 0.205 µM)
MIC 50% (S pneumoniae (SPN); TET R (733)): ≤ 0.12 µg/mL
SMILES: CN(C)c1cc(NC(=O)CNC(C)(C)C)c(O)c2c1C[C@H]1C[C@H]3[C@H](N(C)C)C(O)=C(C(N)=O)C(=O)[C@@]3(O)C(O)=C1C2=O [tigecycline]
% ≤2 mg/L (Enterobacter spp. (ENT) [13]): 98%
% ≤4 mg/L (Enterobacter spp. (ENT) [13]): 100%
% inhibited at ≤ 2 mg/L (E. coli ESBL; (279)): >99%
% inhibited at ≤ 4 mg/L (E. coli ESBL; (279)): 100%
Total % Inhibited at ≤ 2 mg/L [19]: 97%
Total % Inhibited at ≤ 4 mg/L [19]: >99%
% inhibited at ≤ 4 mg/L (Klebsiella spp. ESBL; (317)): 100%
% inhibited at ≤ 4 mg/L (Enterobacteriaceae (ENT)): 98%
% inhibited at ≤ 2 mg/L (S pneumoniae (SPN); CIP-R (171)): 100%
% inhibited at ≤ 2 mg/L (S pneumoniae (SPN); TET R (733)): >99%
% inhibited at ≤ 4 mg/L (S pneumoniae (SPN); TET R (733)): >99%
% inhibited at ≤ 2 mg/L (S pneumoniae (SPN); […]): 100%
clinical cure [25]: 85.7%
